{
  "source": "patent US12390451B2",
  "about": "“Small molecule inhibitor of the JAK family of kinases” (Janssen Pharmaceutica NV, priority 2021, dated 2025)",
  "key": {"JAK2/JAK2": {"molecular_target": "T1, JAK2/JAK2 (Homo sapiens, UniProt O60674)", "T1 construct": "endogenous in cells; host or cells: human whole blood", "T1 sequence (O60674 whole entry)": "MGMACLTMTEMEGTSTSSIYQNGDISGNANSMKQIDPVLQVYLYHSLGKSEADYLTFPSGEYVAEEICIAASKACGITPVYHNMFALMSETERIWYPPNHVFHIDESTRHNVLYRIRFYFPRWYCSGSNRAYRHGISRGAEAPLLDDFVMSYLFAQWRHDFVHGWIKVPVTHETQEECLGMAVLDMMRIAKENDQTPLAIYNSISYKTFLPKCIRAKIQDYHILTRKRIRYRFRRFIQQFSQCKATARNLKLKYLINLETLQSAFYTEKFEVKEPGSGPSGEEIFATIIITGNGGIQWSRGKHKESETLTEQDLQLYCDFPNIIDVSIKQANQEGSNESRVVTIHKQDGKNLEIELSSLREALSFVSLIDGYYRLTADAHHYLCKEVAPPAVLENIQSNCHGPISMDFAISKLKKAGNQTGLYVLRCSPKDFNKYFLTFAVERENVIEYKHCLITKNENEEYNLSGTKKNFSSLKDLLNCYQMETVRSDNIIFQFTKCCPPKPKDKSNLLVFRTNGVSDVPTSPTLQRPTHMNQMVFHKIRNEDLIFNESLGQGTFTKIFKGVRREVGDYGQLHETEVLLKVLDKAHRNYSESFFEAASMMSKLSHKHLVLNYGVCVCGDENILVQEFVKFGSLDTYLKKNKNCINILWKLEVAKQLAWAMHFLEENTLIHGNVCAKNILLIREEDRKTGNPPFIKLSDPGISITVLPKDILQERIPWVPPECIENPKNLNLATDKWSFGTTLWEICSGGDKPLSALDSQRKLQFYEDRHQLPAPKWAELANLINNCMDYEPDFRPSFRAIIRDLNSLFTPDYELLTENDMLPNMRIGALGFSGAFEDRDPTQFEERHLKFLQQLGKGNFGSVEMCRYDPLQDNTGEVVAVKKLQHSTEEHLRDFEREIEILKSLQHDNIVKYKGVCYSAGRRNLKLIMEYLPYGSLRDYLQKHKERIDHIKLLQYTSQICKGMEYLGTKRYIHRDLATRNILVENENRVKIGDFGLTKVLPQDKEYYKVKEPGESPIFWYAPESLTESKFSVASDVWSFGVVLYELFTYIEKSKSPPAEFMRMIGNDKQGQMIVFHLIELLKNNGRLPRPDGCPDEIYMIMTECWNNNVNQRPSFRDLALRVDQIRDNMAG", "T1 sequence (P40238 26-635 partner)": "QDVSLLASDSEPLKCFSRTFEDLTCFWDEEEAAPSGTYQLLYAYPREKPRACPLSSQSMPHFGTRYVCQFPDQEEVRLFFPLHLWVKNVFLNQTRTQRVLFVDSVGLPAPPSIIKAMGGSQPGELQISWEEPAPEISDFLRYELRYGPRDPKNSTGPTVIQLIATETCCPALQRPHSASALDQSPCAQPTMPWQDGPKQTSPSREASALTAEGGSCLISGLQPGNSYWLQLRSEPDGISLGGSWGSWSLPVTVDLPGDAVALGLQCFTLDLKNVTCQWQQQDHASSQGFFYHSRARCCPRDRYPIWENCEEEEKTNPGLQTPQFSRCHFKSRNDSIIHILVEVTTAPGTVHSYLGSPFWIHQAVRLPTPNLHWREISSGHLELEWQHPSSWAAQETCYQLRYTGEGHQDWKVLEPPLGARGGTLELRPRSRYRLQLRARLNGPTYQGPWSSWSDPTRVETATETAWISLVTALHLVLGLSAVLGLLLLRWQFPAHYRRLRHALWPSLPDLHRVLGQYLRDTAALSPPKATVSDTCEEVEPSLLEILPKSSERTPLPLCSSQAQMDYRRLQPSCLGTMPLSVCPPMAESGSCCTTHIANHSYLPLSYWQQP", "assay": "TPO-induced pSTAT-3 in human whole blood", "assay_type": "cell-based", "settings": "mean", "experimental": "(§1) Compound of Formula I presents low levels of systemic exposure after oral administration. To understand the relationship between systemic exposure and target engagement in human studies, the inhibition of cytokine-induced pSTAT-3 in human whole blood was measured with such compound. In human whole blood, compound of Formula I in a concentration-dependent manner inhibited the JAK1, JAK2, JAK3, and Tyk2 homo- and heterodimers downstream of IFNα (JAK1/Tyk2), thrombopoietin (TPO) (JAK2/JAK2), and IL-21 (JAK1/JAK3) signaling."}, "[1]": {"test_system": "IL-22/IL-6/IFNα-induced pSTAT-3 response", "assay": "Ex vivo mouse colon explant model (IL-22/IL-6/IFNα) after oral dosing", "assay_type": "in vivo, C57BL/6 mice", "settings": "for inhibition at 0.5 mg/kg: oral 0.5 mg/kg; for inhibition at 2.5 mg/kg: oral 2.5 mg/kg; for inhibition at 5 mg/kg: oral 5 mg/kg; for inhibition at 25 mg/kg: oral 25 mg/kg", "excerpt": "To understand the potential of local, enteric-selective JAK inhibitors to inhibit STAT signaling in colon tissue, two pharmacokinetic/pharmacodynamic (PK/PD) studies were developed. The first involved the combined intraperitoneal administration of IL-12 and IL-18 in mice which induces a systemic inflammatory response resulting in activation of the JAK/STAT pathway in colonic tissue which can be monitored by robust phosphorylation of STAT3 three hours after challenge. The second PK/PD model involves the ex vivo stimulation of mouse colon tissue with a cocktail of cytokines (IL-22, IL-6, and IFNα), measuring the inhibition of STAT3 phosphorylation after oral dosing of compound of Formula I.\nIn addition to the IL-12/IL-18 model described above, local efficacy of compound of Formula I was further established in a mouse cytokine mixture (IL-22/IL-6/IFNα) colon explant model. A combination of IL-22, IL-6 and IFNα induced a rapid and robust pSTAT-3 response in mouse colon explants ex vivo 1 hour post challenge. This study aimed at examining the dose response and duration of action of compound of Formula I on IL 22/IL 6/IFNα-induced pSTAT-3 response in an ex vivo mouse colon explant model.\nC57BL/6 mice (6 to 8 weeks old) were randomized by weight and assigned to various treatment groups for each study. Mice were dosed orally with indicated doses of compound of Formula I. At the termination of the study, blood was collected via cardiocentesis, serum and washed proximal colon was prepared for PK analysis.\nDistal colon explants (approximately 3 mm^2) were either untreated or treated with cytokines (IL 6, IL-22, IFNα at 100 ng/mL each). Following stimulation for 1 hour, tissue was snap-frozen for homogenization and assayed for pSTAT-3."}, "JAK1/Tyk2": {"molecular_target": "T2, JAK1/Tyk2 (Homo sapiens, UniProt P23458+P29597)", "T2 construct": "endogenous in cells; host or cells: human whole blood", "T2 sequence (P23458 whole entry)": "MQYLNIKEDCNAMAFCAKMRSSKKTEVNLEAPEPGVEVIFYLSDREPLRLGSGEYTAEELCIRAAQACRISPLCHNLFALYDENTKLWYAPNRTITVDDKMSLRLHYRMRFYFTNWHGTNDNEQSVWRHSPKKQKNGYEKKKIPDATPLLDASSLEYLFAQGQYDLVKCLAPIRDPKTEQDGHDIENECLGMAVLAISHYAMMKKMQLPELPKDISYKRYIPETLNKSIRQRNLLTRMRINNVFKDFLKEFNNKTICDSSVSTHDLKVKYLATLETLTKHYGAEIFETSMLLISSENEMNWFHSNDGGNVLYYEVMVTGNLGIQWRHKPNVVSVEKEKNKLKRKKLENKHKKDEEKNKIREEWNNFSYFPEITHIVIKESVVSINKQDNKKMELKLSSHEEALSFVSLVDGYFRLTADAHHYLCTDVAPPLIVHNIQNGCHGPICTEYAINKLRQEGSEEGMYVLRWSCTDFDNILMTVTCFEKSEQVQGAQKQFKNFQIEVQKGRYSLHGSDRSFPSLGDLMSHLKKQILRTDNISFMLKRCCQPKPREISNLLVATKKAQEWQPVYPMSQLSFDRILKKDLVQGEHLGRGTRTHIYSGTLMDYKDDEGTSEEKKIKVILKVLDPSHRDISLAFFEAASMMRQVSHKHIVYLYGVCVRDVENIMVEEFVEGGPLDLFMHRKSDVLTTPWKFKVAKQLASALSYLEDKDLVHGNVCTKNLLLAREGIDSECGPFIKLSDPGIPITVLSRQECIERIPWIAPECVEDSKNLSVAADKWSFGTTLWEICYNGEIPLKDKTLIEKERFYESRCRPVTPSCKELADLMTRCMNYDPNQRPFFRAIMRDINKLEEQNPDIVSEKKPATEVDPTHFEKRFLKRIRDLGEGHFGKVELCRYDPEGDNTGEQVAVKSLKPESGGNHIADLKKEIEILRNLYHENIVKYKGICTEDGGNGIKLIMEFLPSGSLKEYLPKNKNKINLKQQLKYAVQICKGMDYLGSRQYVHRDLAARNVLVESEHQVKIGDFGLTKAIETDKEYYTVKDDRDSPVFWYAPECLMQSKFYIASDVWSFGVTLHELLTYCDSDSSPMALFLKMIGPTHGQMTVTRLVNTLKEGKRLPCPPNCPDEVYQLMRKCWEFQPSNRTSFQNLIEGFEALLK", "T2 sequence (P29597 whole entry)": "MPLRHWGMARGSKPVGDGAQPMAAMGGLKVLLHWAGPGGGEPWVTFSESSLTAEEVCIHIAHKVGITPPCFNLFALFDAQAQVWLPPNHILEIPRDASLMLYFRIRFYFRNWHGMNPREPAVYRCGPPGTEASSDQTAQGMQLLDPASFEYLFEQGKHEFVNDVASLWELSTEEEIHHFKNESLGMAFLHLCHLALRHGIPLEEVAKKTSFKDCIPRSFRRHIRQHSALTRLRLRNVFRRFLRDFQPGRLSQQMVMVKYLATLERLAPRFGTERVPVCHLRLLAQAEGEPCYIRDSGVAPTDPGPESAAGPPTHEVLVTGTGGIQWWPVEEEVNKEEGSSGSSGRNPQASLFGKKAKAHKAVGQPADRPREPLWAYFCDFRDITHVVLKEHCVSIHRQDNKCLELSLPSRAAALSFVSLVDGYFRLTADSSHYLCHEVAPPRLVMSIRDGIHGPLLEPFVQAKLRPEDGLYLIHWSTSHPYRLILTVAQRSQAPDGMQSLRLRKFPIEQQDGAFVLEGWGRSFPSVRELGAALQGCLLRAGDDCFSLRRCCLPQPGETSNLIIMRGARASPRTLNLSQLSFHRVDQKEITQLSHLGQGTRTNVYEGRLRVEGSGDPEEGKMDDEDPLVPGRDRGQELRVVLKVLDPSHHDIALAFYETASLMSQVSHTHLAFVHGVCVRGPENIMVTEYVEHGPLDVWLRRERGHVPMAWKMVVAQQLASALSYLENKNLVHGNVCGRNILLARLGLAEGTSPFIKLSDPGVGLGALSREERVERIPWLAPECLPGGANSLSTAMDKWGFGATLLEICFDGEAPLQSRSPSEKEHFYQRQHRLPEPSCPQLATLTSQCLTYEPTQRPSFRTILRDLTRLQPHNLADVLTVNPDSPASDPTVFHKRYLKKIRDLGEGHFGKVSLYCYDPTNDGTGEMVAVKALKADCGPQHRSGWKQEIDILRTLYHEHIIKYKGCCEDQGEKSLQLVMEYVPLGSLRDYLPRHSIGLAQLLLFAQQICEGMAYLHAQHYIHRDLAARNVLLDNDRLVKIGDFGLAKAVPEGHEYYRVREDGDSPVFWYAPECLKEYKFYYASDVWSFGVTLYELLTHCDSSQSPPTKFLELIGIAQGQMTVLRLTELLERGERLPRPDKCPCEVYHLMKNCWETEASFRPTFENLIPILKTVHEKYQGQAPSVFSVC", "T2 sequence (P17181 28-557 partner)": "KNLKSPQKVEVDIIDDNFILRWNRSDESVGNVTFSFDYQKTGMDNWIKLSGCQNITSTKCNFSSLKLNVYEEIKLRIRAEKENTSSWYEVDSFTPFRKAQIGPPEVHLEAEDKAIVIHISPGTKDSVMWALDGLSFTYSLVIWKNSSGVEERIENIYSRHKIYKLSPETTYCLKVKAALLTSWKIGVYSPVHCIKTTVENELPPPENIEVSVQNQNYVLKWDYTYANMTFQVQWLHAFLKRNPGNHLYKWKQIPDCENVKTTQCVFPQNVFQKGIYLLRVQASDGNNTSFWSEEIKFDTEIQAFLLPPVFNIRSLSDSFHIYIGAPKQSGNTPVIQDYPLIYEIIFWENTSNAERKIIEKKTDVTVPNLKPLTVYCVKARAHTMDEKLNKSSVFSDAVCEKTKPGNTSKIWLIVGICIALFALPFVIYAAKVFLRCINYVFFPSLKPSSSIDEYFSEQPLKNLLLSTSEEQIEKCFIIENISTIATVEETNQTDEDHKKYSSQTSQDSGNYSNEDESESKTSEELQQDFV", "T2 sequence (P48551 27-515 partner)": "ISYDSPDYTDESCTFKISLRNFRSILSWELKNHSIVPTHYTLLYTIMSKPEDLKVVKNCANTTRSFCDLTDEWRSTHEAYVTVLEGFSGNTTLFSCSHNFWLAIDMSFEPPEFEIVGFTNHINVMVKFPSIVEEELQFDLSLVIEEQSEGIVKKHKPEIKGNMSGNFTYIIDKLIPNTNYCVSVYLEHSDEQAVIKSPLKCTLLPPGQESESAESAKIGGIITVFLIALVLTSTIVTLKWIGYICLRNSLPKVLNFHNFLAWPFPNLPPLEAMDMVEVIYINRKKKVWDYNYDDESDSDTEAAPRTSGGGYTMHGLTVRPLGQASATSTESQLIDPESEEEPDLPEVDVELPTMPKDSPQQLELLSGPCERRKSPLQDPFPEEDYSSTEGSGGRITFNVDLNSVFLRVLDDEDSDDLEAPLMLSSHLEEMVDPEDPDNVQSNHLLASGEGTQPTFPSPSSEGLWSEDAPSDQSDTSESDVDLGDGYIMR", "assay": "IFNα-induced pSTAT-3 in human whole blood", "assay_type": "cell-based", "settings": "mean", "experimental": "as §1"}, "[2]": {"settings": "SS-1, mice, read-out: inhibition of IL-22/IL-6/IFNα-stimulated pSTAT-3 response in colon explants"}, "[3]": {"settings": "SS-1, mice, read-out: inhibition of basal pSTAT-3 response in colon explants"}, "[4]": {"settings": "SS-2, mice, read-out: inhibition of IL-22/IL-6/IFNα-stimulated pSTAT-3 in colon explants"}, "[5]": {"settings": "SS-2, mice, read-out: inhibition of basal pSTAT-3 in colon explants"}},
  "note": "Like-named read-outs stand apart in the source and are kept apart here.",
  "data": [
    {"molecule": "CC(C)(O)CNC(=O)Cc1nc2cnc3[nH]ccc3c2n1[C@H]1CC[C@H](CC#N)CC1", "note": "[Compound of Formula I, 2-(1-((1r,4r)-4-(Cyanomethyl)cyclohexyl)-1,6-dihydroimidazo[4,5-d]pyrrolo[2,3-b]pyridin-2-yl)-N-(2-hydroxy-2-methylpropyl)acetamide]", "values": [
      {"measurement": "IC50", "setting": "JAK2/JAK2", "value": 490, "unit": "nM"},
      {"measurement": "inhibition at 0.5 mg/kg", "setting": "[1]; [2]", "value": 42.7, "unit": "%"},
      {"measurement": "inhibition at 0.5 mg/kg", "setting": "[1]; [3]", "value": 54.3, "unit": "%"},
      {"measurement": "inhibition at 2.5 mg/kg", "setting": "[1]; [2]", "value": 74.9, "unit": "%"},
      {"measurement": "inhibition at 2.5 mg/kg", "setting": "[1]; [3]", "value": 74.4, "unit": "%"},
      {"measurement": "inhibition at 5 mg/kg", "setting": "[1]; [2]", "value": 83.8, "unit": "%"},
      {"measurement": "inhibition at 5 mg/kg", "setting": "[1]; [3]", "value": 78.6, "unit": "%"},
      {"measurement": "inhibition at 25 mg/kg", "setting": "[1]; [2]", "value": 93.8, "unit": "%"},
      {"measurement": "inhibition at 25 mg/kg", "setting": "[1]; [3]", "value": 89.5, "unit": "%"},
      {"measurement": "inhibition at 0.5 mg/kg", "setting": "[1]; [4]", "value": 5.5, "unit": "%"},
      {"measurement": "inhibition at 0.5 mg/kg", "setting": "[1]; [5]", "value": 36.7, "unit": "%"},
      {"measurement": "inhibition at 2.5 mg/kg", "setting": "[1]; [4]", "value": 62, "unit": "%"},
      {"measurement": "inhibition at 2.5 mg/kg", "setting": "[1]; [5]", "value": 66.2, "unit": "%"},
      {"measurement": "inhibition at 5 mg/kg", "setting": "[1]; [4]", "value": 68.1, "unit": "%"},
      {"measurement": "inhibition at 5 mg/kg", "setting": "[1]; [5]", "value": 71.3, "unit": "%"},
      {"measurement": "inhibition at 25 mg/kg", "setting": "[1]; [4]", "value": 89.8, "unit": "%"},
      {"measurement": "inhibition at 25 mg/kg", "setting": "[1]; [5]", "value": 83.8, "unit": "%"},
      {"measurement": "IC50", "setting": "JAK1/Tyk2", "value": 105, "unit": "nM"}
    ]}
  ]
}
